# Source: article PMC9506633, “Design, synthesis, anti-proliferative evaluation, docking, and MD simulations studies of new thiazolidine-2,4-diones targeting VEGFR-2 and apoptosis pathway” (PLoS ONE, 2022)
# “Also recorded” adds a separate entry of the source.
# Legend:
# HepG2 = assay: MTT anti-proliferative assay, HepG2; type: cell-based; settings: for IC50: Homo sapiens, HepG2 cell line, MTT; for Selectivity index (HepG2): SI = Cytotoxicity against Vero cells / Cytotoxicity against HepG2 cell line
# Experimental: (§1) The cytotoxicity effects of the synthesized candidates were evaluated against A549, Caco-2, HepG2, and MDA-mb-231 cell lines. MTT assay method was applied using the sub-IC50 concentrations of each compound as the treatment dose. Doxorubicin was used as a reference molecule. […] Also, it was noticed that Caco-2 was the most sensitive cell line.
# (§2) The synthesized compounds were evaluated for their anti-proliferative activities against A549, Caco-2, HepG2, and MDA-mb-231 cell lines using the MTT assay protocol as described in S.1.2. Section in S1 File.
# (§3) Mammalian cell lines culture
# (§4) CaCo-2, and A549 cell lines were cultured on DMEM media, meanwhile MDA-MB-231 and hepG-2 cell line were cultured on RBMI media. The cultured media were supplemented with 200 mM L-glutamine, 10.0% fetal bovine serum (Lonza), and 1.0% penicillin/streptomycin. Cells were seeded into 25.0 cm tissue culture flasks and incubated at 37 ◦C in a 5.0% CO 2 incubator for 24 h or till confluency.
# (§5) The safety profiles of the tested compounds were checked on one non-cancerous cell line (Vero) to […]
# (§6) of 100.0 µl of 6×10^4 cell/ml cells was seeded in to each well of a 96-well plate and then the plates were incubated at 37 °C in a humidified 5.0% CO2 incubator for 24 h. At the end of incubation period, the exhausted medium was replaced with 100.0 µl of different concentrations of the designated treatment (prepared in RPMI medium starting from 1.0 mM). The inoculated plates were incubated at the same growth conditions for another 24 h. At the end of incubation, cellular viability was assessed using MTS assay kit (Promega) according to the manual instruction.
# (§7) S.1.2. In-vitro anticancer activity
# (§8) Anticancer activities of the tested compounds against CaCo-2, MDA-MB-231, and hepG-2 cell lines were quantified using MTS assay kit (Promega) as described by the Manufacturer. […]
# [1] = Safety assay: cytotoxicity against Vero non-cancer cell line; type: cell-based; settings: African green monkey, Vero cells (non-cancer cell line); Vero normal cell line
# Experimental: In this work, the safety pattern of the synthesized derivatives 10a, b and 14a-c was also evaluated by testing their in vitro cytotoxicity against Vero non-cancer cell line using the MTT assay protocol.
# Section in S1 File.
# Mammalian cell lines culture […]
# The cultured media were supplemented with 200 mM L-glutamine, 10.0% fetal bovine serum (Lonza), and 1.0% penicillin/streptomycin. Cells were seeded into 25.0 cm tissue culture flasks and incubated at 37 ◦C in a 5.0% CO 2 incubator for 24 h or till confluency.
# as §5
# as §6, with “instruction. […]” for “instruction.”
# Bcl-2 = assay: RT-qPCR gene expression in Caco-2, Bcl-2; type: cell-based; settings: Caco-2, 1.5 μM, compared to control cells
# From the text: (§9) The molecular anticancer mode of action of 14a was investigated by screening their ability to control the gene expression levels of Bcl2, Bcl-xl, TGF and Survivin genes as reported in S.1.6. Section in S1 File.
# (§10) S.1.4. Selectivity index (SI) […]
# (§11) S.1.6. Gene expression pattern alt ernation of cancer cell after 1 4a treatment The molecular anticancer mode of action of 14a was investigated by screening their ability to affect the gene expression levels of Bcl2, Bcl -xl, TGF and Survivin genes using specific forward and reverse primers and RTq-PCR technique (Table 1) in CaCo-2 cells (chosen as the most sensitive cancer cell line). After cellular treatment, CaCo-2 cell line was cultured into 12 well plates (6×10^3 cell/ml) for 24 h. with the sub-IC50 concentration of 14a. After treatment, total RNA extraction was performed using RNA extraction kit (Qiagen, Germany). Then, 1 ug of the obtained RNA was used to synthesiz cDNA using cDNA synthesis kit (Promega Corp., Madison, WI) as recommended by the manufacturer. Simultaneously, GAPDH forward and reverse primers (Table 1) were used to amplify the house keeping gene as internal control for standardization of PCR products. The RTq-PCR was done using SYBR Green dye (QuantiTect SYBR Green PCR Kits) and Light Cycler fluorimeter (Bio-RAD S1000 Tm thermal cycler). […]
# MDA-mb-231 = assay: MTT anti-proliferative assay, MDA-mb-231; type: cell-based; settings: for IC50: Homo sapiens, MDA-mb-231 cell line, MTT; for Selectivity index (MDA-MB-231): SI = Cytotoxicity against Vero cells / Cytotoxicity against MDA-MB-231 cell line
# Experimental: as §1, §2, §3, §4, §5, §6, §7, §8
# VEGFR-2 = biological target: T1, VEGFR-2 (Homo sapiens, UniProt P35968); assay: In vitro VEGFR-2 inhibition (VEGFR-2 ELISA kit); type: biochemical; settings: for IC50: ELISA kit; for HillSlope (best-fit value) / LogIC50 (best-fit value): dose-response curve fit, raw data S.5
# T1 construct: purchased
# Experimental: Compounds 10a, b and 14a-c were evaluated for their VEGFR-2inhibitory activity.
# VEGFR-2 ELISA kit was used in this test as described in S.1.3. Section in S1 File. […]
# S.1.3. In vitro VEGFR-2 kinase assay
# All the synthesized compounds were tested for its inhibitory activity against VEGFR-2. Human VEGFR-2 ELISA kit (Enzyme-Linked Immunosorbent Assay) was utilized in this test. At first, specific antibody for VEGFR-2 was seeded on a 96-well plate and 100 μL of the standard solution or the tested compound was added, all were incubated at room temperature for 2.5 h. Then washed, 100 μL of the prepared biotin antibody was added, then incubated at room temperature for additional 1 h. and washed. Then, 100 μL of streptavidin solution was added and incubated for 45 min. at room temperature. Washed again, 100 μL of TMB Substrate reagent was added and incubated for 30 min. at room temperature. 50 μL of the stop solution was added, then read at 450 nm immediately. The standard curve was drawn, concentrations on the X-axis and the absorbance
# Bcl-xl = assay: RT-qPCR gene expression in Caco-2, Bcl-xl; type: cell-based; settings: Caco-2, 1.5 μM, compared to control cells
# From the text: as §9, §10, §11
# Caco-2 cells = assay: In vitro scratch (wound healing, migration) assay; type: cell-based; settings: Caco-2, 1 μM
# Experimental: The in vitro scratch assay[38] was used to assess the prospective of compound 14a to inhibit the ability of Caco-2 cells to migrate and heal. The basic idea behind this test is to create a scratch in a cancer cell line monolayer, measure the diameter at the start time and at regular intervals to investigate the potential of the cancer cell to migrate and heal. The findings of the treated cell line are then compared to the untreated cell line.
# Cell Migration assay was conducted according to the reported protocol as described [59]in S.1.5. Section in S1 File.
# S.1.4. Selectivity index (SI)
# The selectivity index values of the tested compounds on cancer cells were calculated as described by Koch et al., with slight modifications; SI=IC50nc/IC50cc, where IC50nc: the IC50 value of the tested compound on normal cells and IC 50cc: IC50 of the tested compound on cancer cell line .
# S.1.5. Wound healing assay (Migration assay)
# CaCo-2 cells were grown to 95.0% confluency in a complete DMEM medium and then the wounds were formed using a plastic tip. […] After incubation at 37°C and 5.0% CO2 for 24h, the cells were washed with PBS and the wounds distance was determined as the scratch width of the treated and untreated groups using […]
# S.1.6. […] The RTq-PCR was done using SYBR Green dye (QuantiTect SYBR Green PCR Kits) and Light Cycler fluorimeter (Bio-RAD S1000 Tm thermal cycler). […]
# [2] = MTT anti-proliferative assay, Caco-2; type: cell-based; settings: African green monkey (Vero); human (Caco-2); SI = Cytotoxicity against Vero cells / Cytotoxicity against Caco-2 cell line; read-out: Selectivity index (Caco-2)
# Experimental: as §1, §2, §3, §4, §5, §6, §7, §8
# Caco-2 = assay: MTT anti-proliferative assay, Caco-2; type: cell-based; settings: Homo sapiens; Caco-2 cell line, MTT; read-out: Anti-proliferative activity (IC50 μM) Caco2
# Experimental: as §1, §2, §3, §4, §5, §6, §7, §8
# TGF = assay: RT-qPCR gene expression in Caco-2, TGF; type: cell-based; settings: Caco-2, 1.5 μM, compared to control cells
# From the text: as §9, §10, §11
# A549 = assay: MTT anti-proliferative assay, A549; type: cell-based; settings: for IC50: Homo sapiens, A549 cell line, MTT; for Selectivity index (A549): SI = Cytotoxicity against Vero cells / Cytotoxicity against A549 cell line
# Experimental: as §1, §2, §3, §4, §5, §6, §7, §8
# Survivin = assay: RT-qPCR gene expression in Caco-2, Survivin; type: cell-based; settings: Caco-2, 1.5 μM, compared to control cells
# From the text: as §9, §10, §11
# T1 sequence (P35968 20-1356): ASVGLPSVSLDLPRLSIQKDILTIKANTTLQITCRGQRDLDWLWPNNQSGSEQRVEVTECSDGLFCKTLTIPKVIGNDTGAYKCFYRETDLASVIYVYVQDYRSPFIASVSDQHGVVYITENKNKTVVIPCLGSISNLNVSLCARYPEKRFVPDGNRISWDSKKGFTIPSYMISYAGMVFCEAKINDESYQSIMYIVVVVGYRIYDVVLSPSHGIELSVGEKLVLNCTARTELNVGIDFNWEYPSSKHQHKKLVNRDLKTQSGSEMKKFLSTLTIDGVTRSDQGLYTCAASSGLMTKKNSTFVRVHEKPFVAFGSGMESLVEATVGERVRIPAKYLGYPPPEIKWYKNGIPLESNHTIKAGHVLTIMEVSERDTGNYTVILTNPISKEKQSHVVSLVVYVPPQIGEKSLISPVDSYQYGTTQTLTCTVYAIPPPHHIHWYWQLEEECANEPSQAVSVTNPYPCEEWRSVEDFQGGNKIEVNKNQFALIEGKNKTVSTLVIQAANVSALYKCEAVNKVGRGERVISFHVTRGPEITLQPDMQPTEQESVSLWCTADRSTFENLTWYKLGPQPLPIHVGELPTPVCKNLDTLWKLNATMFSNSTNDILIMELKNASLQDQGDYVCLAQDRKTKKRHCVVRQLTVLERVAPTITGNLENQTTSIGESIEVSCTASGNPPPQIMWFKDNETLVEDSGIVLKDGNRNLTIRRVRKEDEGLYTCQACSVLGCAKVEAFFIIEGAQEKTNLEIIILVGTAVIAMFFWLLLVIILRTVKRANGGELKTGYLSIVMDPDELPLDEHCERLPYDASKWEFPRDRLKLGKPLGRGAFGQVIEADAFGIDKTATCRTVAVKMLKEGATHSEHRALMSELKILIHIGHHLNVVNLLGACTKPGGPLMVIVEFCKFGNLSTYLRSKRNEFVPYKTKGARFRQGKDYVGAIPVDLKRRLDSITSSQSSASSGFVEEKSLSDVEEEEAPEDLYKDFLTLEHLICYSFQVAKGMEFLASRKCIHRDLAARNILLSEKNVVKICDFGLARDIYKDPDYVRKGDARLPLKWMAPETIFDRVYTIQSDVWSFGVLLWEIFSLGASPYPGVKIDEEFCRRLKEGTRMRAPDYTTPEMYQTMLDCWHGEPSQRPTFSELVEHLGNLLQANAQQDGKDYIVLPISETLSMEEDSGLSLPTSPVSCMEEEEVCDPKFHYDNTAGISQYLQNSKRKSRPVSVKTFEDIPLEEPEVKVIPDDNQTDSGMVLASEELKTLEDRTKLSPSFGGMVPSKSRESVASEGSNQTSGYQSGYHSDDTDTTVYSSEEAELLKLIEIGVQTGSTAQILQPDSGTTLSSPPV
SMILES,IC50 (HepG2) [µM],Selectivity index (HepG2) (HepG2),IC50 at 24 h [1] [µM],Bcl-2 gene expression level (Bcl-2),IC50 (MDA-mb-231) [µM],Selectivity index (MDA-MB-231) (MDA-mb-231),IC50 (VEGFR-2) [µM],HillSlope (best-fit value) (VEGFR-2),LogIC50 (best-fit value) (VEGFR-2),Bcl-xl gene expression level (Bcl-xl),Inhibition of migration and healing of Caco-2 cells (Caco-2 cells; 24 h),"Width of the scratch (Caco-2 cells; after 24 h, control scratch width at 0 hr 0.356 mm) [mm]",selectivity ratio [2],IC50 (Caco-2) [µM],TGF gene expression level (TGF),IC50 (A549) [µM],Selectivity index (A549) (A549),Survivin gene expression level (Survivin)
"O=C(CN1C(=O)SC(=C2C(=O)Nc3ccccc32)C1=O)Nc1ccc(Cl)cc1 [Compound 14a, N-(4-Chlorophenyl)-2-(2,4-dioxo-5-(2-oxoindolin-3-ylidene)thiazolidin-3-yl)acetamide]",31.5 ± 2.5,9.196,290 ± 28.3,significant reduction; also recorded: significant down-regulation; also recorded: downregulate,84 ± 7.3,3.375,0.0915 ± 0.0082,-0.4675,1.961 Log (nM),non-detectable change,inhibit the migration and healing of Caco-2 cells in a significant manner; also recorded: significantly inhibited the ability of cancer cells to migrate and heal,0.293,212,1.5 ± 0.08,significant reduction; also recorded: significant down-regulation; also recorded: downregulate,170 ± 14.5,1.704,significant reduction; also recorded: significant down-regulation; also recorded: downregulate
"COc1ccc2[nH]c(=O)c(/C=C3\SC(=O)N(CC(=O)Nc4ccc(Cl)cc4)C3=O)cc2c1 [Compound 10a, (Z)-N-(4-Chlorophenyl) -2-(5-((6-methoxy-2-oxo-1,2-dihydroquinolin-3-yl)methylene) -2,4-dioxothiazolidin-3-yl)acetamide]",174 ± 16.3,1.118,194 ± 18.2,–,132 ± 5.2,1.460,0.0652 ± 0.0055,-0.4587,1.814 Log (nM),–,–,–,2.35,82.5 ± 7.2,–,85 ± 7.5,2.280,–
"COc1cccc2c1C(=O)c1c(O)c3c(c(O)c1C2=O)C[C@@](O)(C(=O)CO)C[C@@H]3O[C@H]1C[C@H](N)[C@H](O)[C@H](C)O1 [Doxorubicin, reference compound]",1.2 ± 0.07,–,–,–,0.98 ± 0.001,–,–,–,–,–,–,–,–,3.5 ± 0.22,–,86.4 ± 7.1,–,–
"COc1ccc2[nH]c(=O)c(/C=C3\SC(=O)N(CC(=O)Nc4cc(Cl)ccc4Cl)C3=O)cc2c1 [Compound 10b, (Z)-N-(2,5-Dichlorophenyl)-2-(5-((6-methoxy-2-oxo-1,2-dihydroquinolin-3-yl)methylene)-2,4-dioxothiazolidin-3-yl)acetamide]",71 ± 6.4,22.250,1580 ± 155,–,31.5 ± 2.5,51.333,0.165 ± 0.0153,-0.3514,2.216 Log (nM),–,–,–,25.3,62.5 ± 5.4,–,92.5 ± 8.6,17.080,–
"O=C(CN1C(=O)SC(=C2C(=O)Nc3ccccc32)C1=O)NCCc1ccccc1 [Compound 14c, 2-(2,4-Dioxo-5-(2-oxoindolin-3-ylidene)thiazolidin-3-yl)-N-phenethylacetamide]",92 ± 8.1,10.601,–,–,484 ± 47.2,2.020,0.0815 ± 0.0073,-0.4220,1.911 Log (nM),–,–,–,5.07,192 ± 18.1,–,282 ± 27.3,3.463,–
"O=C(CN1C(=O)SC(=C2C(=O)Nc3ccccc32)C1=O)Nc1cc(Cl)ccc1Cl [Compound 14b, N-(2,5-Dichlorophenyl)-2-(2,4-dioxo-5-(2-oxoindolin-3-ylidene)thiazolidin-3-yl)acetamide]",42.5 ± 3.2,29.917,1270 ± 126,–,94.5 ± 8.4,13.555,0.0858 ± 0.0076,-0.5620,1.934 Log (nM),–,–,–,17.1,74 ± 6.5,–,292 ± 25.1,4.340,–
